Source: US9981969B2, “Imidazole derivatives and methods of use thereof for improving the pharmacokinetics of a drug” (MERCK SHARP & DOHME CORP., priority 2013, dated 2018)

How the values were obtained:
[1] = biological target: T1, CYP3A4 (Homo sapiens, UniProt P08684); test: Cocktail assay for CYPs in human liver microsomes, midazolam 1′-hydroxylation (3A4); assay type: biochemical; conditions: 2 μM midazolam, 10 min at 37° C.
T1 construct: 0.1 mg/mL protein human liver microsomes (BD Gentest); tissue BD Gentest; host or cells: human liver microsomes
Procedure: (§1) This assay was performed in a standard 96-well plate design. IC50 values were calculated from the percent inhibition observed for each test compound at 6 concentrations (for example, 0.0032, 0.016, 0.08, 0.4, 2 and 10 μM). The incubation substrate mix contains 10 μM phenacetin (1A2), 5 μM diclofenac (2C9), 30 μM mephenytoin (2C19), 5 μM dextromethorphan (2D6) and 2 μM midazolam (3A4), 0.1 mg/mL protein human liver microsomes (BD Gentest), 1 mM NAPDH, 3.3 mM MgCl2 and 100 mM potassium phosphate buffer (pH 7.4). The production of the metabolite of each probe substrate was determined after incubation for 10 min at 37° C. Quantitation of the metabolite peak area ratio against an internal standard (tolbutamide) was determined by LC/MS/MS analysis following acetonitrile treatment of the incubations.
(§2) Samples were analyzed in the MRM mode with a SCIEX API-4000 mass spectrometer (Applied Biosystems, Foster City, Calif.), with a Shimadzu LC-20 AD pump (Shimadzu corporation, Kyoto, JP) and a CTC PAL autosampler (Agilent Technologies, Switzerland). A Phenomenex, Luna, 5 μm, 100A, 2.00×30 mm HPLC column was used for the separation. The mobile phases were: (A) 0.1% formic acid in water and (B) 0.1% formic acid in acetonitrile. The binary gradient was as follows. AutoSampler: CTC PAL
(§3) The peak area ratio of the analyte to the internal standard was used to quantify the metabolite. The values of peak area ratios in the presence of test compound were compared to those of maximum or minimum controls and were expressed as % inhibition by interpolating between the maximum and minimum peak area ratios. Incubations with no inhibitor were defined as the maxima. The following equation was used to calculate the % inhibition: [1−[(X−Low control)/(High control−Low control)]]*100 For the IC50 calculation, SigmaPlot was used to plot the mean % inhibition versus the test compound concentrations and for non-linear regression analysis of the data. Depending on the range of data points defining the inhibition curve, the data may have been fit to the 4-parameter logistic equation.

[2] = biological target: T2, CYP1A2 (Homo sapiens, UniProt P05177); test: Cocktail assay for CYPs in human liver microsomes, phenacetin O-deethylation (1A2); assay type: biochemical; conditions: 10 μM phenacetin, 10 min at 37° C.
T2 construct: 0.1 mg/mL protein human liver microsomes (BD Gentest); tissue BD Gentest; host or cells: human liver microsomes
T2 sequence (P05177 1-516): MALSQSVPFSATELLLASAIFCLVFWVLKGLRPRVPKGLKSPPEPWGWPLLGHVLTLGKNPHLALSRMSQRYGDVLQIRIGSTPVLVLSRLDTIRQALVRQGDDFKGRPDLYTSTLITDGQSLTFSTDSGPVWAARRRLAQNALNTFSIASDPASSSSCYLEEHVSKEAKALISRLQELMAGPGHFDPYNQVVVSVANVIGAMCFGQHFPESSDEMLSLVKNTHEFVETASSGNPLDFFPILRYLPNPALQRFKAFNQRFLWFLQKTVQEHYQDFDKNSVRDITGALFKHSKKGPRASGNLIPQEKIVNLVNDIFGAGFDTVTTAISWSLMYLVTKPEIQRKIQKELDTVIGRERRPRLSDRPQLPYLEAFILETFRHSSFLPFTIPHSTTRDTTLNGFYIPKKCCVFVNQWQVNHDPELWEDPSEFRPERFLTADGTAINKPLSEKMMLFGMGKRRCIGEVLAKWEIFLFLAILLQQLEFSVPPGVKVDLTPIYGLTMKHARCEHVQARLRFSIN
Procedure: as §1, §2, §3

[3] = biological target: T3, CYP2C9 (Homo sapiens, UniProt P11712); test: Cocktail assay for CYPs in human liver microsomes, diclofenac 4′-hydroxylation (2C9); assay type: biochemical; conditions: 5 μM diclofenac, 10 min at 37° C.
T3 construct: 0.1 mg/mL protein human liver microsomes (BD Gentest); tissue BD Gentest; host or cells: human liver microsomes
Procedure: as §1, §2, §3

[4] = biological target: T4, CYP2C19 (Homo sapiens, UniProt P33261); test: Cocktail assay for CYPs in human liver microsomes, mephenytoin 4′-hydroxylation (2C19); assay type: biochemical; conditions: 30 μM mephenytoin, 10 min at 37° C.
T4 construct: 0.1 mg/mL protein human liver microsomes (BD Gentest); tissue BD Gentest; host or cells: human liver microsomes
Procedure: as §1, §2, §3

[5] = biological target: T5, CYP2D6 (Homo sapiens, UniProt P10635); test: Cocktail assay for CYPs in human liver microsomes, dextromethorphan O-demethylation (2D6); assay type: biochemical; conditions: 5 μM dextromethorphan, 10 min at 37° C.
T5 construct: 0.1 mg/mL protein human liver microsomes (BD Gentest); tissue BD Gentest; host or cells: human liver microsomes
Procedure: as §1, §2, §3

[6] = biological target: T6, human CYP11B1 (Homo sapiens, UniProt P15538); test: IC50 vs CYP11B1 by measurement of cortisol synthesis in V79 cells; assay type: cell-based; conditions: V79 cells expressing human CYP11B1, 1500 nM RSS, cortisol HTRF
T6 construct: expressed in transfected cells
T6 sequence (P15538 25-503): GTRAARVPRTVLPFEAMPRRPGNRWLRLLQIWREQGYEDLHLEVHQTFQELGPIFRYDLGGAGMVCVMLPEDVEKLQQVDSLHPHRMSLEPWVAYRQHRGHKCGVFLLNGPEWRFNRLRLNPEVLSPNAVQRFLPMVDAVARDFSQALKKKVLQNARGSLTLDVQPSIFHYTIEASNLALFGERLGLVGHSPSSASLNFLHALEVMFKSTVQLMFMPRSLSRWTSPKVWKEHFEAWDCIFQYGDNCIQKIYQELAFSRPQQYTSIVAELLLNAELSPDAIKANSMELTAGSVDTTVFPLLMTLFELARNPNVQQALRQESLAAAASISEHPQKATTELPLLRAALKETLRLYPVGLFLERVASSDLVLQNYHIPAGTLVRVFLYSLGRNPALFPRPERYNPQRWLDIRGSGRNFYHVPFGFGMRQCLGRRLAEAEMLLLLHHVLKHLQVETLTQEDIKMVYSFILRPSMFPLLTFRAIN
Procedure: (§4) This assay was performed in a standard 384-well plate design using cultured V79 cells stably expressing human CYP11B1 or human CYP11B2. Test compounds at 10 concentrations (for example, 10000, 3333.3, 1111.1, 370.4, 123.5, 41.2, 13.7, 4.6, 1.5 and 0.5 nM) were added in 384-well plate after the cell-seeding procedure. The incubation substrate contains 1500 nM RSS for CYP11B1 assay/750 nM DOC for CYP11B2 assay. The Cortisol/Aldosterone production of cell culture supernatant was determined by Cortisol/Aldosterone HTRF kit after for about 15 hours incubation at RT (protect from light). IC50 (nM) values were calculated from the percent inhibition observed for each test compound at 10 concentrations.
(§5) The assay plate was read using Envision (Perkin Elmer, Waltham, Mass.) at 665 nm and 590 nm (using Filter Barcode of 217#, 205#; Mirror Barcode of 446#).
(§6) Data are analyzed using Assay Data Analyzer. All ratio data (665 nm/590 nm) are back calculated according to the standard curve, resulting in Cortisol/Aldosterone concentrations. IC50 (nM) values are reported as the Inflection Point (IP) of a four parameter fit of the titration data.
(§7) The following equation was used to calculate the % inhibition: % Activity=100×{1−(Sample_back calculated Cortisol/Aldosterone concentration−LC_back calculated Cortisol/Aldosterone concentration)/(HC_back calculated Cortisol/Aldosterone concentration−LC_back calculated Cortisol/Aldosterone concentration)} Curve Fitting: Four Parameter Logistic: […]

[7] = biological target: T7, human CYP11B2 (Homo sapiens, UniProt P19099); test: IC50 vs CYP11B2 by measurement of aldosterone synthesis in V79 cells; assay type: cell-based; conditions: V79 cells expressing human CYP11B2, 750 nM DOC, aldosterone HTRF
T7 construct: expressed in transfected cells
T7 sequence (P19099 25-503): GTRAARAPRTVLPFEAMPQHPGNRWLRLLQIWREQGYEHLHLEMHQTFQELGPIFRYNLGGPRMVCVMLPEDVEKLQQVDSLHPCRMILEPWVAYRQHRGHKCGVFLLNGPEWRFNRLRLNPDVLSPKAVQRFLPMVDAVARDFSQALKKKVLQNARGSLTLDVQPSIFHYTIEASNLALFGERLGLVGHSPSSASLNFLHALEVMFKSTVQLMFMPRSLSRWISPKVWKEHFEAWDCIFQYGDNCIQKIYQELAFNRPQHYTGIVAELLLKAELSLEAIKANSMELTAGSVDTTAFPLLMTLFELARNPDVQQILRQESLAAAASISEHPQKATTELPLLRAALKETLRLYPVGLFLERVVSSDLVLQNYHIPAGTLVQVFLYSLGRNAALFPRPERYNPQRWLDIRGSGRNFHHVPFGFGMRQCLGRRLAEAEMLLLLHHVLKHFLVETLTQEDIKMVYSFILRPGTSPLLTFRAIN
Procedure: as §4, §5, §6, §7

T3 sequence (P11712 whole entry): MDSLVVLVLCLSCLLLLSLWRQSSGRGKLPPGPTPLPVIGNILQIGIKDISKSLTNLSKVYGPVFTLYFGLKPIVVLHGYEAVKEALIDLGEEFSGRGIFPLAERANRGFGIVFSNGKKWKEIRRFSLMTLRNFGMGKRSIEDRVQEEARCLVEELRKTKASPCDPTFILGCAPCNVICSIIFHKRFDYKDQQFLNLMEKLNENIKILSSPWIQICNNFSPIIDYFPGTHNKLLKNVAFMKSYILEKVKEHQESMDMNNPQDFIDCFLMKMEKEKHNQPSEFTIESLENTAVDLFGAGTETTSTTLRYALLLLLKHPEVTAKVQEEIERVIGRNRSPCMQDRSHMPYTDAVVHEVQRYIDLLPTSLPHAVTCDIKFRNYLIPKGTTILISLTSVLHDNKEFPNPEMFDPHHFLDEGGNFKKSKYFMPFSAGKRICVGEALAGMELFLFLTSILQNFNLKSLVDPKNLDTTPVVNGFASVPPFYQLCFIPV
T5 sequence (P10635 whole entry): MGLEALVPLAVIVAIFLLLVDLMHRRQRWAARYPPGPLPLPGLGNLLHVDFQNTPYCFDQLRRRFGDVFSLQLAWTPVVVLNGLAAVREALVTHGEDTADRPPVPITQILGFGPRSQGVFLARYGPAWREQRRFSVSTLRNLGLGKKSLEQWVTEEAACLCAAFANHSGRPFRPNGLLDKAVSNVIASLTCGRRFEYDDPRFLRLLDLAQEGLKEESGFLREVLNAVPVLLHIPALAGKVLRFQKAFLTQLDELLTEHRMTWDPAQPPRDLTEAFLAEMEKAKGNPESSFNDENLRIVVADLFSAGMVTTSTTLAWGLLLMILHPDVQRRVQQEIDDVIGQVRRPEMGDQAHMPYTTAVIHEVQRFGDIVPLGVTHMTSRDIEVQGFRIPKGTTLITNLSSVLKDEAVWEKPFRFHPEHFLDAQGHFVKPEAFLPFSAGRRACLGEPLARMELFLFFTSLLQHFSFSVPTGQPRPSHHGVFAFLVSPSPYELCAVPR
T4 sequence (P33261 whole entry): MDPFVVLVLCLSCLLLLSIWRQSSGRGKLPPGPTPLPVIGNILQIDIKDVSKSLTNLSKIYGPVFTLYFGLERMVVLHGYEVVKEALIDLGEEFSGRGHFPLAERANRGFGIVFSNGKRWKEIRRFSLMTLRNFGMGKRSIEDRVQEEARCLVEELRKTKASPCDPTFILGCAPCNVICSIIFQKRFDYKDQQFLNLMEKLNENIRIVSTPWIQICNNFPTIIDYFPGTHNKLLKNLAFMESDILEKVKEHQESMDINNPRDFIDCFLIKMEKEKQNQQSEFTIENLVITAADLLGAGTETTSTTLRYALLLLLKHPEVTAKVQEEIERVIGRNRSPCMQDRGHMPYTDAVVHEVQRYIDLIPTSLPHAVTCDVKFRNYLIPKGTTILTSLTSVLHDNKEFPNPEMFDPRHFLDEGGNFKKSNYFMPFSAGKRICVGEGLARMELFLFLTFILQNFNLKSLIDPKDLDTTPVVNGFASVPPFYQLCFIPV
T1 sequence (P08684 whole entry): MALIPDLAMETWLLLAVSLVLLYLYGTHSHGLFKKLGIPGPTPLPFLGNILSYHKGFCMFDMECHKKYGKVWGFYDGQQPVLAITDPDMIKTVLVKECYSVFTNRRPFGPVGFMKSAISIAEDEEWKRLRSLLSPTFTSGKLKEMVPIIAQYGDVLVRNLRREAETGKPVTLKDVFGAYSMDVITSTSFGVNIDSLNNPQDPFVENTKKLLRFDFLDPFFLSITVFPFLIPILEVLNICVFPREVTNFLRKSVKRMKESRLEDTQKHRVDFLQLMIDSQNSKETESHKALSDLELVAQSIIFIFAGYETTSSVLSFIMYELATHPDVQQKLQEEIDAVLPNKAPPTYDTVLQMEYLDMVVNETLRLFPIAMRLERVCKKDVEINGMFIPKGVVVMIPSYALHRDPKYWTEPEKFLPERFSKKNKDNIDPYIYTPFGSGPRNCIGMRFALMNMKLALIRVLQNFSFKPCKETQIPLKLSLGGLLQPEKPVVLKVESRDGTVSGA

SMILES	IC50 [1]	IC50 [2]	IC50 [3]	IC50 [4]	IC50 [5]	IC50 [6]	IC50 [7]
C[C@@H](c1ccccc1-c1ccc(F)cc1)n1cncc1C(=O)N1CCC2NC(=O)CO[C@@H]2C1 (mixture of isomers) [Compound 50]	0.0053 µM	> 10 µM	> 10 µM	> 10 µM	8.08 µM	26.9 µM	> 50 µM
C[C@@H](c1ccccc1-c1ccc(F)cc1)n1cncc1C(=O)N1CCCC(N2CCC(C)(O)CC2)CC1 (single isomer, unassigned) [Compound 3a]	0.0073 µM	> 10 µM	> 10 µM	> 10 µM	4.05 µM	37.4 µM	> 50 µM
C[C@@H](c1ccccc1-c1ccc(F)cc1)n1cncc1C(=O)N1CCCC(N2CCC(C)(O)CC2)CC1 (single isomer, unassigned) [Compound 3b]	0.0066 µM	> 10 µM	> 10 µM	> 10 µM	2.39 µM	12.6 µM	42.6 µM
C[C@@H](c1ccccc1-c1ccc(F)cc1)n1cncc1C(=O)N1CCC(N2CCC(O)CC2)CC1 [Compound 1]	0.0068 µM	> 10 µM	> 10 µM	> 10 µM	6.55 µM	33.5 µM	> 50 µM
C[C@@H](c1ccccc1-c1ccc(F)cc1)n1cncc1C(=O)N1CC[C@@H](N2CCC(O)CC2)[C@@H](F)C1 [Compound 2]	0.005 µM	> 10 µM	> 10 µM	> 10 µM	> 10 µM	24.3 µM	31 µM
C[C@@H](c1ccccc1-c1ccc(F)cc1)n1cncc1C(=O)N1CC[C@H]2NCCO[C@@H]2C1 [Compound 4]	0.0058 µM	> 10 µM	> 10 µM	> 10 µM	4.87 µM	13.9 µM	> 50 µM
C[C@@H](c1ccccc1-c1ccc(F)cc1)n1cncc1C(=O)N1CCn2c(nnc2C2CC2)C1 [Compound 5]	0.0061 µM	> 10 µM	> 10 µM	7.57 µM	≥ 10 µM	42.6 µM	> 50 µM
C[C@@H](c1ccccc1-c1ccc(F)cc1)n1cncc1C(=O)N1CCN2C[C@H](O)C[C@H]2C1 [Compound 6, (1-((S)-1-(4′-fluoro-[1,1′-biphenyl]-2-yl)ethyl)-1H-imidazol-5-yl)((7R,8aS)-7-hydroxyhexahydro-pyrrolo[1,2-a]pyrazin-2(1H)-yl)methanone]	0.0089 µM	> 10 µM	> 10 µM	> 10 µM	> 10 µM	29.7 µM	> 50 µM
CCc1nnc2n1CCN(C(=O)c1cncn1[C@@H](C)c1ccccc1-c1ccc(F)cc1)C2 [Compound 7, (S)-(3-ethyl-5,6-dihydro-[1,2,4]triazolo[4,3-a]pyrazin-7(8H)-yl)(1-(1-(4′-fluoro-[1,1′-biphenyl]-2-yl)ethyl)-1H-imidazol-5-yl)methanone]	0.0057 µM	> 10 µM	> 10 µM	> 10 µM	> 10 µM	45.5 µM	> 50 µM
C[C@@H](c1ccccc1-c1ccc(F)cc1)n1cncc1C(=O)N1CCC(N2CCC[C@H](O)C2)CC1 [Compound 8]	0.0056 µM	> 10 µM	> 10 µM	> 10 µM	> 10 µM	21 µM	> 50 µM
C[C@@H](c1ccccc1-c1ccc(F)cc1)n1cncc1C(=O)N1CCC(N2CCCC(C)(O)C2)CC1 (some centres unmarked) [Compound 9]	0.0066 µM	> 10 µM	> 10 µM	> 10 µM	6.63 µM	24.9 µM	> 50 µM
